The results in this text go back to ChEMBL document CHEMBL4414576, “Recent advancements in mechanistic studies and structure activity relationship of FoF1 ATP synthase inhibitor as antimicrobial agent” (Eur J Med Chem, 2019).

This experiment concerns Mycobacterium tuberculosis variant bovis. Nature of the experiment: Antimicrobial activity against Mycobacterium bovis after 1 to 5 days by two-fold dilution. It counts as functional, organism-based.

Molecules are shown by their SMILES.

As for `FC(F)(F)Oc1cccc(CNCCNC2C3CC4CC(C3)C2C4)c1` (stereo unspecified), the IC50 – broadly, the point on the concentration scale where inhibition reaches its midpoint – turned out to be 1250 nM.
